The results in this text go back to patent US20110288011A1, “PEPTIDE THERAPEUTIC CONJUGATES AND USES THEREOF” (priority 2008, published 2011).

The target of one data set is NTSR1 (Homo sapiens, UniProt P30989). Description: biochemical.
Another data set deals with mice brains. Description: In situ brain perfusion of iodinated NT and NT-An2. It counts as in vivo. The source says:
Following iodination, mice brains were perfused in the carotid artery with either [^125I]-NT or the [^125I]-NT-An2 derivative in Krebs buffer for the indicated times. After the indicated times, brains were further perfused for 30 sec to washout the excess of both compound. Both [^125I]-NT or [^125I]-NT-An2 derivative in brain were quantified using a […]. Results are expressed in terms of brain volume of distribution (ml/100 g) as a function of time.
Brain capillary depletion was performed using Dextran following standard procedures. Both [^125I]-NT or [^125I]-NT-An2 derivative present in brain, capillaries, and parenchyma were quantified and volume of distribution (ml/100 g/2 min) is reported.
To confirm that the NT-An2 conjugate crosses the BBB, both NT and the conjugate were iodinated using standard procedures, and in situ brain perfusion was performed using methods standard in the art. The initial transport was measured as a function of time (FIG. 42). […] Higher levels of NT-An2 were found in the brain parenchyma when compared to NT.

Another data set deals with rats. Description: Body temperature (sustained hypothermia) in rats. It counts as in vivo. As to the method:
A similar experiment was performed in rats.
A similar experiment was conducted in rats.
A further experiment, conducted over a 12-hour period, was also performed in rats.

Data set [1] concerns mice. Description: Body temperature (hypothermia induction) in mice. It counts as in vivo. As to conditions: for Δ Max temp: mouse, in vivo.
Procedure: We also tested whether higher doses of the conjugate would results in greater induction of hypothermia.
At this time, the infusion was increased to 40 mg/kg/hr.
In data set [2] the test system is mice. Description: Hot plate test (analgesia) in mice. Conditions: 15 minutes following injection, NT-An2 20 mg/kg, buprenorphine 1 mg/kg. On the technique in general: Hot-plate and tail-flick tests time the reaction to a heat stimulus.
The subject of a further data set is mouse brain. Conditions: in vivo.
For another data set, the system named is DIO mice. Description: Glycemia in DIO mice after bolus injection. It counts as in vivo, mouse. Conditions: vs control. As to the method: We also tested the ability of the exendin-4-Angiopep-2 dimer conjugate to reduce glycemia in DIO mice. Mice were injected with a bolus containing a control, exendin-4, or the exendin-4-Angiopep-2 dimer conjugate.
Another data set relates to ob/ob mice. Description: Treatment of obese (ob/ob) mice with Exen-An2: body weight, food intake, glycemia. It counts as in vivo, mouse. Conditions: higher doses (exendin-4 30 μg/kg, Exen-An2 48 μg/kg), vs control. On the procedure:
The body weight of each mouse was measured daily. Food intake was estimated based on the mean values for each group, and glycemia was measured one hour following treatment.

In a further data set the test system is blood-brain barrier. As to conditions: mouse, in vivo.

Entries after “also recorded” stand apart in the source; their conditions may differ. Square brackets hold non-standard residues; d marks the D form. Ends that are not written are not given here. Peptide text beside a SMILES is read from it. pGlu = O=C1CC[C@@H](C(=O)O)N1

NTSR1, sequence (P30989 whole entry, the tested form may be a part): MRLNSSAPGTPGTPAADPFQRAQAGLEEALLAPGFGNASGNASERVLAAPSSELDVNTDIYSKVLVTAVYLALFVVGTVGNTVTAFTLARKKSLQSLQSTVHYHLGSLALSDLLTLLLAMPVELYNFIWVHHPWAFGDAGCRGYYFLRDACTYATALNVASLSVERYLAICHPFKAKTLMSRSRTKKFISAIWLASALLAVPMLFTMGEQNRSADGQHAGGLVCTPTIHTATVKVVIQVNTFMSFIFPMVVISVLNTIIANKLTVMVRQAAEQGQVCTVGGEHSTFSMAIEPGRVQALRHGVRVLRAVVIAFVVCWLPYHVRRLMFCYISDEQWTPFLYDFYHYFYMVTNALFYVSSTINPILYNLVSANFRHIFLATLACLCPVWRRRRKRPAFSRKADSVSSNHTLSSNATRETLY
Procedure for mouse brain: To measure brain uptake of the exendin-4/Angiopep-2 conjugates, we used an in situ perfusion assay. […] Briefly, the right common carotid artery of mice anesthetized with ketamine/xylazine (140/8 mg/kg i.p.) was exposed and ligated at the level of the bifurcation of the common carotid, rostral to the occipital artery. The common carotid was then catheterized rostrally with polyethylene tubing filled with heparin (25 U/ml) and mounted on a 26-gauge needle. […] Prior to the perfusion, the contralateral blood flow contribution was eliminated by severing the heart ventricles. […] Mice were then decapitated to terminate perfusion and the right hemisphere was isolated on ice before being subjected to capillary depletion. Aliquots of homogenates, supernatants, pellets, and perfusates were taken to measure their contents and to evaluate the apparent volume of distribution.

Consider `CC[C@H](C)[C@H](NC(=O)[C@@H](Cc1ccc(O)cc1)NC(=O)[C@@H]1CCCN1C(=O)[C@H](CCCNC(=N)N)NC(=O)[C@H](CCCNC(=N)N)NC(=O)[C@H](CCCCN)NC(C)=O)C(=O)N[C@@H](CC(C)C)C(=O)O` [AcLysNT(8-13)D-tyr11, Ac-KRRPD-YIL-OH] (Ac-KRRP[dY]IL-OH), for which half-maximal inhibition on NTSR1 (IC50) required 5390 nM.
Still for that read-out and setting: then `CC[C@H](C)[C@H](NC(=O)[C@H](Cc1ccc(O)cc1)NC(=O)[C@@H]1CCCN1C(=O)[C@H](CCCNC(=N)N)NC(=O)[C@H](CCCNC(=N)N)NC(=O)[C@H](CCCCN)NC(=O)[C@@H]1CCC(=O)N1)C(=O)N[C@@H](CC(C)C)C(=O)O` [pGlu-Lys-NT(8-13)] ([pGlu]KRRPYIL-OH; C-terminus assumed), with 1.3 nM.
Regarding “NT-An2: Neurotensin Angiopep-2-Cys amide conjugate via EMCS/MHA linker; different production batches”, in the data set on mice brains (2 min in situ perfusion, capillary depletion), the “trapping in the brain capillaries” value was “not trapped in the brain capillaries”. Also, the “levels in the brain parenchyma” value with mice brains (2 min in situ perfusion, capillary depletion, compared to NT) is reported as “Higher levels”. In addition, the initial brain uptake result in the data set on mice brains (in situ brain perfusion, as a function of time, iodinated compounds) is “higher than for the unconjugated NT”. In addition, the body temperature entry in the data set on rats (40 mg/kg i.v. bolus followed by infusion, 12-hour period, 40 mg/kg) is recorded as “sustained reduction in body temperature; also recorded: prolonged reduction of body temperature”; with rats (i.v. 20 mg/kg then 20 mg/kg/hr infusion, 360-minute time course), “sustained reduction in body temperature”; in the data set on mice [1] (mice, i.v. bolus 20 mg/kg then 20 mg/kg/hr for 2.5 hours, then 40 mg/kg/hr, 360 minute time course), “reduction in body temperature”; with mice [1] (mice, intravenous, NT 1 mg/kg or equivalent dose of conjugate (2.5 mg/kg)), “rapid decrease in the body temperature”; with mice [1] (mice, intravenous, NT-An2 5 mg/kg), “stronger decrease in body temperature”. The maximal temperature drop result in the data set with rats (i.v. bolus 20 mg/kg then 20 mg/kg/hr for […], after 90 minutes) is “about 3.5 °C”. Besides, the “reduction in body temperature” value in the data set with mice [1] (mice, 5, 15, or 20 mg/kg, monitored for 120 minutes) was “Small differences between these higher doses”. In addition, the “effect on body temperature” value in the data set on mice [1] (mice, i.v. bolus, monitored 120 minutes, conjugates compared with control) is “greatest reduction in body temperature; also recorded: larger effect”. The “Δ Max temp” value is −4 to −5 °C in the data set with mice [1] (listed as ANG-NT (prep #1)), −4 to −5 °C in the data set on mice [1] (listed as ANG-NT (prep #2)), −3 to −4 °C in the data set on mice [1] (listed as ANG-NT (prep #3)) and −2 to −4 °C in the data set with mice [1] (listed as ANG-NT (prep #4)). For the same compound, the “latency of foot licking behavior (hot plate)” value in the data set on mice [2] is reported as “increased the latency of foot licking behavior in a statistically significant manner”.
Regarding exendin-4, in the data set with mouse brain, the brain distribution amounted to 0.2 ml/100 g/2 min. Moreover, the glycemia entry in the data set on DIO mice is on record as “reduced glycemia”. Besides, the body weight gain entry in the data set with ob/ob mice (after 10 days of daily treatment) is listed as “lower than the control; also recorded: reduce weight gain”. In addition, the food intake result with ob/ob mice is reported as “reduced; also recorded: reduce food intake”.
Consider “leptin(116-130) (SCHLPWASGLETLDS-NH2; UniProt P41159 116-130, looked up, fragment) [leptin116-130]”, for which the “transport across the BBB” value in the data set with blood-brain barrier is reported as “reduced as compared to in lean mice”.
